Test results reported in ChEMBL document CHEMBL1201862, “PubChem BioAssay data set” (2004).
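Cultured in 96-well plates, cells were exposed to test compound for 48 hours across five concentrations. GI50 marks 50% less growth.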 Calls of active or inactive are those of the source. Rule as the data show it: active = GI50 up to about 1.1 µM and inactive = higher.

Legend:
Test in all cases: inhibition of tumour cell growth, NCI panel, 48 h
[1] = tested on: NCI-H226
[2] = tested on: OVCAR-5
[3] = tested on: SK-OV-3
[4] = tested on: UACC-257
[5] = tested on: COLO 205
[6] = tested on: OVCAR-8
[7] = tested on: IGROV-1
[8] = tested on: RPMI-8226
[9] = tested on: EKVX
[10] = tested on: SK-MEL-28
[11] = tested on: HT-29
[12] = tested on: SK-MEL-5
[13] = tested on: A549
[14] = tested on: UACC-62
[15] = tested on: HCC 2998
[16] = tested on: U-251
[17] = tested on: T47D
[18] = tested on: KM12
[19] = tested on: NCI-H522
[20] = tested on: SF-539

Measured: GI50

COC(=O)C1(Cc2cccc(Cl)c2)CCCCCCN1C(=O)c1ccccc1 (stereo unspecified)
inactive: [1] 25.1 µM | [2] 15.8 µM | [3] 19.2 µM | [4] > 10 µM | [5] 15.5 µM | [6] 16.6 µM | [7] 19.1 µM | [8] 6.7 µM | [9] 12 µM | [10] 14.9 µM | [11] 12.9 µM | [12] 12.8 µM | [13] 14.5 µM | [14] 11.1 µM | [15] 13.6 µM | [16] 15.4 µM | [17] 14.4 µM

CCCC(=O)n1[nH]c(=O)n(C(C)(C)C)c1=O
inactive: [1] > 100 µM | [2] > 100 µM | [3] > 100 µM | [4] > 100 µM | [5] > 100 µM | [6] > 100 µM | [7] > 100 µM | [8] > 100 µM | [9] > 100 µM | [10] > 100 µM | [18] > 100 µM | [11] > 100 µM | [12] > 100 µM | [13] > 100 µM | [14] > 100 µM | [15] > 100 µM | [16] > 100 µM | [17] > 100 µM

CCOP(=O)(C=C=C1CCC2[C@@H]3CCc4cc(OC)ccc4C3CC[C@]12C)OCC (stereo partly specified)
inactive: [19] 4.16 µM | [1] 5.43 µM | [2] 17 µM | [3] 16.7 µM | [4] 6.21 µM | [5] 10.5 µM | [6] 11 µM | [7] 11.4 µM | [9] 10 µM | [10] 10.6 µM | [18] 12.4 µM | [11] 3.93 µM | [12] 2.98 µM | [13] 4.07 µM | [20] 14.9 µM | [14] 3.89 µM | [15] 12.1 µM | [16] 11 µM | [17] 6.22 µM

O=C1c2ccccc2C(=O)N1n1c(Cc2ccc([N+](=O)[O-])cc2)n[nH]c1=O
inactive: [19] > 100 µM | [1] > 100 µM | [2] > 100 µM | [4] > 100 µM | [6] > 100 µM | [7] > 100 µM | [8] > 100 µM | [10] > 100 µM | [18] > 100 µM | [11] > 100 µM | [12] > 100 µM | [13] > 100 µM | [20] > 100 µM | [14] 36.3 µM | [15] > 100 µM | [16] > 100 µM | [17] 23.3 µM

CCOC(=O)CNc1c(OCc2ccccc2)c(=O)c1=O
inactive: [19] > 100 µM | [1] > 100 µM | [2] > 100 µM | [3] > 100 µM | [4] > 100 µM | [5] > 100 µM | [6] > 100 µM | [7] > 100 µM | [8] > 100 µM | [9] > 100 µM | [10] > 100 µM | [18] > 100 µM | [11] > 100 µM | [12] > 100 µM | [13] > 100 µM | [14] > 100 µM | [15] > 100 µM | [16] > 100 µM | [17] > 100 µM

COc1ccc2c(c1)c(CC(=O)O)c(C)n2C(=O)c1ccc(Cl)cc1
inactive: [19] 77.1 µM | [1] 98.4 µM | [2] > 100 µM | [4] > 100 µM | [5] > 100 µM | [6] 77.6 µM | [7] > 100 µM | [8] 28.5 µM | [9] > 100 µM | [10] > 100 µM | [18] 60.8 µM | [11] > 100 µM | [12] > 100 µM | [13] > 100 µM | [20] 98.2 µM | [15] 35.6 µM | [16] 43.1 µM | [17] 52.6 µM

Nc1ccc2nc(-c3cccc(Cl)c3)cc(O)c2c1
inactive: [19] 2.34 µM | [2] > 100 µM | [3] 4.82 µM | [4] > 100 µM | [5] 4.81 µM | [6] 18 µM | [7] 29.3 µM | [9] 42.6 µM | [10] 7.91 µM | [18] 4.23 µM | [11] 3.41 µM | [12] 3.58 µM | [13] 6.15 µM | [20] 2.11 µM | [14] 3.14 µM | [15] 6.73 µM | [16] 3.2 µM | [17] 5.96 µM
